Laboratory results reported in patent US12194140B2, “Compositions for topical treatment of microbial infections” (Hennepin Life Sciences, priority 2012, dated 2025).

Columns and labels:
[1] = tested on: Staphylococcus aureus; test: Spectrum of antibacterial activity of GML; assay type: cell-based; conditions: optimal growth conditions; 54 strains tested
[2] = tested on: Group G Streptococcus; test: Spectrum of antibacterial activity of GML; assay type: cell-based; conditions: optimal growth conditions; 1 strain tested
[3] = tested on: Streptococcus suis; test: Spectrum of antibacterial activity of GML; assay type: cell-based; conditions: optimal growth conditions; 1 strain tested
[4] = tested on: Streptococcus sanguinis; test: Spectrum of antibacterial activity of GML; assay type: cell-based; conditions: optimal growth conditions; 1 strain tested
[5] = tested on: Streptococcus pneumoniae Serotype III; test: Spectrum of antibacterial activity of GML; assay type: cell-based; conditions: optimal growth conditions; 2 strains tested
[6] = tested on: Bacillus cereus; test: Spectrum of antibacterial activity of GML; assay type: cell-based; conditions: optimal growth conditions; 1 strain tested
[7] = tested on: Peptostreptococcus species; test: Spectrum of antibacterial activity of GML; assay type: cell-based; conditions: optimal growth conditions; 1 strain tested
[8] = tested on: Clostridium perfringens; assay type: cell-based; conditions: optimal growth conditions; 1 strain tested
[9] = tested on: Neisseria gonorrhoeae; test: Spectrum of antibacterial activity of GML; assay type: cell-based; conditions: optimal growth conditions; 1 strain tested
[10] = tested on: Campylobacter jejuni; test: Spectrum of antibacterial activity of GML; assay type: cell-based; conditions: optimal growth conditions; 1 strain tested
[11] = tested on: Pseudomonas aeruginosa; test: Spectrum of antibacterial activity of GML; assay type: cell-based; conditions: optimal growth conditions; 1 strain tested
[12] = tested on: Burkholderia cenocepacia; test: Spectrum of antibacterial activity of GML; assay type: cell-based; conditions: optimal growth conditions; 1 strain tested
[13] = tested on: Prevotella melaninogenica; test: Spectrum of antibacterial activity of GML; assay type: cell-based; conditions: optimal growth conditions; 1 strain tested
[14] = tested on: Fusobacterium species; test: Spectrum of antibacterial activity of GML; assay type: cell-based; conditions: optimal growth conditions; 1 strain tested
[15] = tested on: Escherichia coli; test: Spectrum of antibacterial activity of GML; assay type: cell-based; conditions: optimal growth conditions; 2 strains tested
[16] = tested on: Salmonella minnesota; test: Spectrum of antibacterial activity of GML; assay type: cell-based; conditions: optimal growth conditions; 1 strain tested
[17] = tested on: Enterobacter aerogenes; test: Spectrum of antibacterial activity of GML; assay type: cell-based; conditions: optimal growth conditions; 1 strain tested
[18] = tested on: Shigella sonnei; assay type: cell-based
[19] = tested on: Klebsiella pneunoniae; test: Spectrum of antibacterial activity of GML; assay type: cell-based; conditions: optimal growth conditions; 1 strain tested
[20] = tested on: Mycobacterium phlei; test: Spectrum of antibacterial activity of GML; assay type: cell-based; conditions: optimal growth conditions; 1 strain tested
[21] = tested on: Mycobacterial species; assay type: cell-based
[22] = tested on: Candida albicans; test: GML in vegetable oil, growth in Todd Hewitt broth (CFU/mL); assay type: cell-based; conditions: GML in olive, palm or corn oil (all 3); 18 hours, 37° C.
[23] = tested on: Staphylococcus aureus MNPE (methicillin sensitive) and MW2 (methicillin resistant); test: as above; assay type: cell-based; conditions: both strains; GML in olive, palm or corn oil (all 3); 18 hours, 37° C.
[24] = tested on: S. aureus strains MN8, MNWH, MW2; test: Biofilm formation in 96 well microtiter plates; assay type: cell-based
[25] = tested on: non-typable Haemophilus influenzae; assay type: cell-based
[26] = tested on: S. aureus biofilm; test: Treatment of previously formed biofilms; assay type: cell-based; conditions: 48 hour biofilm; 500 μg/mL GML for 60 minutes at 37° C.
[27] = tested on: H. influenzae biofilm; test: Treatment of previously formed biofilms; assay type: cell-based; conditions: 48 hour biofilm; 500 μg/mL GML for 60 minutes at 37° C.
Description: Supernatants were removed and bactericidal activity was determined by measuring CFU/mL (FIG. 9, left; # significant reduction in mean absorbance at 595 nm compared to no GML control, p<0.01). Wells were then washed and stained with crystal violet as described above.

[28] = tested on: E. coli (Watson strain); test: Effect of pH on GML activity; assay type: cell-based; conditions: for bactericidal GML concentration: 24 hours
Description: An experiment was conducted to determine the effect of GML in the presence of various pH levels on the growth of E. coli. E. coli (Watson strain) was grown in Todd Hewitt media and adjusted to […]. Using acetate buffer, the pH of the cultures was adjusted to 5.0, 6.0, or 7.0. […] Samples were removed for enumeration of CFU/mL at 24 hours.

[29] = tested on: P. aeruginosa (strain PAO 1); test: Effect of pH on GML activity; assay type: cell-based, Pseudomonas aeruginosa; conditions: GML 10 μg/mL to 5000 μg/mL, 24 hours
Description: The effect of GML at a range of concentrations and in the presence of a range of pH levels on the growth of Pseudomonas aeruginosa was also determined. P. aeruginosa (strain PAO 1) was inoculated in Todd Hewitt broth at 5.7×10^6/mL. GML was added to cultures at a range of concentrations from 10 μg/mL to 5000 μg/mL, and the pH was adjusted to 5.0, 6.0, or 7.0. CFU/mL was determined after 24 hours of incubation. […] A pH of 5.0 in the absence of GML was somewhat inhibitory for the growth of P. aeruginosa.

[30] = tested on: S. aureus (strain MN8); test: Effect of non-aqueous gel on antimicrobial activity of GML; assay type: cell-based; conditions: GML alone in Todd Hewitt broth; 24 hours
[31] = tested on: S. aureus MN8; test: Antibacterial activity of GML after pre-treatment with sterile culture fluid; assay type: cell-based; conditions: 24 hour assay
[32] = tested on: coagulase-negative staphylococci; test: Decolonization of anterior nares; assay type: in vivo, human; conditions: 5% w/v GML in non-aqueous gel
[33] = tested on: oral aerobic bacteria; test: Decolonization of teeth and gum lines; assay type: in vivo, human; conditions: 5% GML gel on teeth and gum lines; thirty minutes after treatment
Excerpt: Human volunteers were swabbed with a PBS-saturated swab across the teeth and gum lines on the left side of the mouth and tested for CFU/mL of total bacteria subsequently grown on blood agar plates. The same individuals were then swabbed with GML gel by swabbing the gel across the teeth and gum lines on the right side of the mouth. Enough gel was used to coat the entire surface area of the teeth and gum lines. Thirty minutes after treatment, the participants were swabbed with PBS-saturated swabs on the right side and total CFU/mL were determined. […] Bacterial counts on both sides of the teeth and gum lines were presumed to be approximately equal, and a pre-test swab confirmed that this was the case.

For Glycerol monolaurate [GML], the “Average Bactericidal Concentration of GML” value [1] was 300 µg/mL, the “Average Bactericidal Concentration of GML” value [2] was 50 µg/mL and the “Average Bactericidal Concentration of GML” value [3] was 50 µg/mL. The “Average Bactericidal Concentration of GML” value [4] was 50 µg/mL, the “Average Bactericidal Concentration of GML” value [5] was 10 µg/mL and the “Average Bactericidal Concentration of GML” value [6] was 50 µg/mL. The “Average Bactericidal Concentration of GML” value [7] was 1 µg/mL, the “Average Bactericidal Concentration of GML” value [8] was 1 µg/mL and the “Average Bactericidal Concentration of GML” value [9] was 20 µg/mL. The “Average Bactericidal Concentration of GML” value [10] was 1 µg/mL, the “Average Bactericidal Concentration of GML” value [11] was “Not Susceptible” and the “Average Bactericidal Concentration of GML” value [12] was 500 µg/mL. For the same substance, the “Average Bactericidal Concentration of GML” value [13] was 50 µg/mL, the “Average Bactericidal Concentration of GML” value [14] was 50 µg/mL and the “Average Bactericidal Concentration of GML” value [15] was “Not Susceptible”. For the same substance, the “Average Bactericidal Concentration of GML” value [16] was “Not Susceptible”, the “Average Bactericidal Concentration of GML” value [17] was “Not Susceptible” and the “Average Bactericidal Concentration of GML” value [18] was “Not Susceptible”. The “Average Bactericidal Concentration of GML” value [19] was “Not Susceptible”, the “Average Bactericidal Concentration of GML” value [20] was 100 µg/mL and the “GML concentration at which organisms were killed” value [21] was at least 50 µg/mL. The “GML concentration at which growth was inhibited” value [22] was 100 µg/mL, the “GML concentration at which growth was inhibited” value [23] was 100 µg/mL and the “fold lower GML concentration inhibiting biofilm formation (crystal violet, absorbance 595 nm) than necessary to inhibit bacterial growth” value ([24]; 24 or 48 hours) was 10 fold. For the same substance, the “GML concentration at which growth was completely inhibited (CFU/mL)” value ([24]; all three strains, 24 and 48 hours) was 500 µg/mL, the “GML concentration inhibiting biofilm formation (crystal violet, absorbance 595 nm)” value [25] was at most 1.0 µg/mL and the “bactericidal GML concentration in the context of a biofilm (CFU/mL)” value [25] was 50 µg/mL. For the same substance, the “bactericidal activity on previously formed biofilm (CFU/mL)” value [26] was “killed”, the “biofilm material attached to the wells (crystal violet staining)” value [26] was “nearly completely removed biofilm material” and the “bactericidal activity on previously formed biofilm (CFU/mL)” value [27] was “killed”. The “biofilm material attached to the wells (crystal violet staining)” value [27] was “nearly completely removed biofilm material”, the “bactericidal GML concentration” value ([28]; pH 5.0) was 0.1 µg/mL and the “bactericidal GML concentration” value ([28]; pH 6.0) was 50 µg/mL. For the same substance, the “bactericidal GML concentration” value ([28]; pH 7.0) was over 5000 µg/mL, the “increase in susceptibility to GML with each unit drop in pH” value ([28]; pH 7.0 to 5.0) was 500 times and the “effect on growth (CFU/mL)” value ([29]; pH 5.0) was “further inhibited P. aeruginosa growth in a dose-dependent manner”. The “effect on growth (CFU/mL)” value ([29]; pH 6.0 or 7.0) was “no concentration of GML was inhibitory”, the “GML concentration inhibiting growth (CFU/mL)” value [30] was at least 100 µg/mL and the “antibacterial activity of GML after pre-incubation” value ([31]; pre-incubated overnight with sterile culture fluid from S. aureus MN8) was “eliminated the antibacterial activity”. The “antibacterial activity of GML after pre-incubation” value ([31]; pre-incubated overnight with sterile culture fluid from S. pyogenes) was “did not affect”, the “coagulase-negative staphylococcal counts in both nares after treatment” value ([32]; swab, three subjects, 4 hours or more up to 24 hour) was “significantly (p<0.05) reduced” and the “coagulase-negative staphylococci in right nare after 3 days” value ([32]; one subject, initially 560) was 8 CFU/mL. For the same substance, the “coagulase-negative staphylococci in left nare after 3 days” value ([32]; one subject, initially 880) was 0 CFU/mL and the “reduction in CFUs between pretreatment and post-treatment swabs” value [33] was over 5 log.
